Laboratory results reported in patent US11312718B2, “Formulations of (S)-3-(1-(9H-purin-6-ylamino)ethyl)-8-chloro-2-phenylisoquinolin-1(2H)-one” (Infinity Pharmaceuticals, Inc., priority 2011, dated 2022).
Where a name gives a salt, the structure may show the parent alone. Read-outs that look alike come from different tables or passages of the source. Blank lines part the entries; values can stand above or below the molecule they belong to.

Legend:
[1] = Thermal stability (60° C.); details: for Thermal stability (60° C.): after 1 week; for polymorph Form changes by XRPD: held at 60° C. for 10 days
Protocol: Forms A, B, C, D, and E were held at 60° C. for 10 days followed by analysis by XRPD. In each case, 8 mL vials were charged with approximately 20 mg of material, with the exception of Form B for which 10 mg of material was charged. Samples equilibrated in an oven for 10 days.

[2] = Salt screen: solubility in water; type: physicochemical
Source text: Salts of a compound of Formula (I) were formed with L-tartaric acid, p-toluenesulfonic acid, D-glucaronic acid, ethane-1,2-disulfonic acid (EDSA), 2-naphthalenesulfonic acid (NSA), hydrochloric acid (HCl) (mono and bis), hydrobromic acid (HBr), citric acid, naphthalene-1,5-disulfonic acid (NDSA), DL-mandelic acid, fumaric acid, sulfuric acid, maleic acid, methanesulfonic acid (MSA), benzenesulfonic acid (BSA), ethanesulfonic acid (ESA), L-malic acid, phosphoric acid, and aminoethanesulfonic acid (taurine).

[3] = Solubility of polymorph Forms (H2O, SGF); type: physicochemical
[4] = Stability studies of packaged polymorph Forms (temperature and humidity storage); type: physicochemical; details: HPLC, Karl Fischer, XRPD
Source text: Polymorphs Form A and Form C were subjected to stability studies where several samples of each given Form were packaged and subjected to the given temperature and humidity conditions as described in Table 10. At each timepoint, a sample for that study was opened and evaluated by HPLC for purity, Karl Fischer for moisture content, and XRPD for confirming the polymorph Form.

[5] = Grinding stability (mortar and pestle); type: physicochemical; details: for Form by XRPD after grinding: after both 2 and 5 minutes of grinding by hand; for Grinding (mortar & pestle): by hand, 2 and 5 min, XRPD
Protocol: Forms A, C, D, and E were subjected to grinding experiments performed using a mortar and pestle by hand. Samples were lightly grounded for 2 minutes then analyzed by XRPD. Material was then returned to the mortar and pestle and grounded for an additional 3 minutes, for a total of 5 minutes of grinding, and re-analyzed by XRPD.

[6] = Drying of Form A at 70° C.; type: physicochemical; details: Drying at 70° C. for six days
Protocol: 1. Procedure from CH2Cl2 and from IPA: Form C (1 g) was slurried in five volumes of dichloromethane. After holding for 15 hours, filtration, and drying, Form A was isolated in 82% yield. Scale-up was performed on a 20 g scale with a water-wet cake of Form C to yield Form A in 92% yield. […] Slurrying dry Form C in isopropyl alcohol using a similar method also yielded Form A.

[7] = Dynamic vapor sorption (DVS) / moisture sorption analysis; type: physicochemical; details: for hygroscopicity / moisture uptake at 60% RH / moisture uptake at 90% RH: DVS; for moisture uptake at 60% RH / moisture uptake at 90% RH: about 25° C.
Protocol: Compounds and polymorphs provided herein can be characterized by moisture sorption analysis. This analysis was performed using a Hiden IGAsorp Moisture Sorption instrument. Moisture sorption experiments were carried out at about 25° C. by performing an adsorption scan from about 40% to about 90% RH in steps of about 10% RH and a desorption scan from about […] to about 0% RH in steps of about −10% RH. A second adsorption scan from about 10% to about 40% RH was performed to determine the moisture uptake from a drying state to the starting humidity. Samples were allowed to equilibrate for about four hours at each point or until an asymptotic weight was reached. After the isothermal sorption scan, samples were dried for about one hour at elevated temperature (about 60° C.) to obtain the dry weight. XRPD analysis on the material following moisture sorption was performed to determine the solid form.
Dynamic vapor sorption (DVS) analysis was performed on polymorph Forms A, B, C, D, and E using the DVS instrument and parameters as described above. […] Hysteresis indicative of hemi-hydrate formation was observed.

[8] = Hold in humidity chambers at 9% RH and 95% RH; type: physicochemical; details: after 1 week
[9] = human plasma, 37° C., 5 μM; cited from earlier work
[10] = Pharmacokinetics, repeat oral dose; type: in vivo; details: both sexes, human, plasma; Day 14; repeat oral dosing 1, 2, 5, 10 mg (QD Days 1 and 14, BID Days 2 through 13); range over doses
Protocol: Repeat oral dose administration of a compound of Formula (I) Form C polymorph was administered once per day (QD) in the morning on Days 1 and 14 and twice daily (BID) on Days 2 through 13. Administration of the compound occurred after an overnight fast on Days 1 and 14. Blood samples were collected for plasma analysis on Day 14 following 1, 2, 5 and 10 mg repeat dosing. Blood samples were collected on Day 14 prior to dosing and at 0.5, 1, 1.5, 2, 3, 4, 6, 9, 12, 16 and 24 hours after administration to determine plasma concentrations of the compound of Formula (I) Form C polymorph. Doses of 1 mg, 2 mg, 5 mg, and 10 mg gave a Cmax value range of greater than 10 ng/mL to less than 1,000 ng/mL in a dose dependent manner. In addition doses of 1 mg, 2 mg, 5 mg, and 10 mg gave an AUCtau,ss value range of greater than 100 ng*h/mL to less than 2,500 ng*h/mL, in a dose dependent manner. For the BID regimens, the AUC over a 24 hour interval was obtained by multiplying AUCtau,ss by 2.

[11] = Stability of the capsules in a container closure; type: physicochemical
Protocol: The stability of the capsules in a container closure was evaluated at long-term and accelerated conditions. Container closure conditions used were (i) 60-cc high density polyethylene (HDPE), wide mouth, round, white bottle; and (ii) child resistant 33-mm white plastic cap with a heat induction foil inner seal liner. The containers containing the capsules were subjected to the following conditions: (1) −20° C.±5° C.; (2) 5° C.±3° C.; (3) 25° C.±2° C., 60% RH±5% RH; (4) 40° C.±2° C., 75% RH±5% RH; (5) 25° C.±2° C., 60% RH±5% RH, open bottle; (6) 40° C.±2° C., 75% RH±5% RH, open bottle; and (7) 30° C.±2° C., 65% RH±5% RH. Samples of the capsule formulations were analyzed at certain time intervals. The API remained stable at 25° C.±2° C., 60% RH±5% RH and 40° C. 2° C., […]±5% RH for at least 6 months. The API remained stable for at least 6 month at −20° C. 5° C., 5° C. 3° C. when stored in induction-sealed HDPE bottles. The API was stable for at least 6 months at 25° C.±2° C., 60% RH±5% RH and 40° C.±2° C., 75% RH±5% RH in open HDPE bottles.

[12] = Pharmacokinetics, single oral dose; type: in vivo; details: both sexes, human, plasma, healthy adult subjects, fasting, range over doses
Protocol: A randomized, double-blind, placebo-controlled, single and repeat dose study was conducted to evaluate the pharmacokinetics (PK) of a compound of Formula (I) Form C polymorph when orally administered to healthy adult male and female subjects. Subjects received a single oral dose of a compound of Formula (I) Form C polymorph under fasting conditions at a dose of 1 mg, 2 mg, 5 mg, 10 mg, 20 mg, and 30 mg. Blood samples were collected for plasma analysis pre-dose, and at 0.5, 1, 1.5, 2, 3, 4, 6, 9, 12, 16, and 24 hours.

[13] = PBS at pH 7.4, 37° C., 24 hours, 5 μM; cited from earlier work

Thermal stability (60° C.) [1]: stable after 1 | polymorph Form changes by XRPD [1]: No polymorph Form changes were observed | Solubility in water ([2]; listed as Free Form A): 30 µg/mL | Solubility (mg/mL) ([3]; H2O): 0.030 (H2O) mg/mL | Solubility (mg/mL) ([3]; SGF): 21.800 (SGF) mg/mL | Form by XRPD after grinding [5]: remain consistent | Grinding (mortar & pestle) [5]: remained Form | Moisture Sorption (wt % water) ([7]; 60% RH, listed as Free Form A): 60% RH: 0.7 wt % water | Moisture Sorption (wt % water) ([7]; 90% RH, listed as Free Form A): 90% RH: 2.6 wt % water | DVS ([7]; @ 60% RH): 0.7% @ 60% RH | DVS ([7]; @ 90% RH): 2.6% @ 90% RH | hygroscopicity [7]: slightly hygroscopic | moisture uptake at 60% RH ([7]; 60% RH): 0.7 wt % | moisture uptake at 90% RH ([7]; 90% RH): 2.6 wt % | changes in Form [8]: no changes in Form
Structure (SMILES): C[C@H](Nc1ncnc2[nH]cnc12)c1cc2cccc(Cl)c2c(=O)n1-c1ccccc1 [Form A, (S)-3-(1-(9H-purin-6-ylamino)ethyl)-8-chloro-2-phenylisoquinolin-1(2H)-one]
instability of the polymorphic Form ([4]; Double LDPE bags in fiberboard drum, 40° C. ± 2° C./75% RH ± 5% RH, 1, 2, 3, 6, and 12 months): no indication of instability of the polymorphic Form | degradation in chemical or chiral purity [6]: no degradation in chemical or chiral purity

Structure (SMILES): CCCOc1cc(N)ccc1C(=O)OCCN(CC)CC [propoxycaine]
plasma stability [9]: low plasma stability

Thermal stability (60° C.) [1]: stable after 1 | polymorph Form changes by XRPD [1]: No polymorph Form changes were observed | DVS ([7]; @ 60% RH): 1.0% @ 60% RH | DVS ([7]; @ 90% RH): 1.7% @ 90% RH | hygroscopicity [7]: slightly hygroscopic | moisture uptake at 60% RH ([7]; 60% RH): 1.0 wt % | moisture uptake at 90% RH ([7]; 90% RH): 1.7 wt %
Structure (SMILES): C[C@H](Nc1ncnc2[nH]cnc12)c1cc2cccc(Cl)c2c(=O)n1-c1ccccc1 [Form B, (S)-3-(1-(9H-purin-6-ylamino)ethyl)-8-chloro-2-phenylisoquinolin-1(2H)-one]

Thermal stability (60° C.) [1]: stable after 1 | polymorph Form changes by XRPD [1]: No polymorph Form changes were observed | Grinding (mortar & pestle) [5]: amorphous | DVS ([7]; @ 60% RH): 0.4% @ 60% RH | DVS ([7]; @ 90% RH): 1.7% @ 90% RH | hygroscopicity [7]: slightly hygroscopic | moisture uptake at 60% RH ([7]; 60% RH): 0.4 wt % | moisture uptake at 90% RH ([7]; 90% RH): 1.7 wt %
Structure (SMILES): C[C@H](Nc1ncnc2[nH]cnc12)c1cc2cccc(Cl)c2c(=O)n1-c1ccccc1 [Form D, (S)-3-(1-(9H-purin-6-ylamino)ethyl)-8-chloro-2-phenylisoquinolin-1(2H)-one]

Solubility in water [2]: 300 µg/mL
Structure (SMILES): C[C@H](Nc1ncnc2[nH]cnc12)c1cc2cccc(Cl)c2c(=O)n1-c1ccccc1 [NDSA]

Thermal stability (60° C.) [1]: stable after 1 | polymorph Form changes by XRPD [1]: No polymorph Form changes were observed | AUC [10]: 100 to 2500 ng·h/mL | Cmax at 14 days [10]: 10 to 1000 ng/mL | Solubility (mg/mL) ([3]; H2O): 0.001 (H2O) mg/mL | Solubility (mg/mL) ([3]; SGF): 9.133 (SGF) mg/mL | Form by XRPD after grinding [5]: remain consistent | Grinding (mortar & pestle) [5]: remained Form | DVS ([7]; @ 60% RH): 4.2% @ 60% RH | DVS ([7]; @ 90% RH): 4.9% @ 90% RH | hygroscopicity [7]: moderately hygroscopic | moisture uptake at 60% RH ([7]; 60% RH): 4.2% | moisture uptake at 90% RH ([7]; 90% RH): 4.9% | time the API remained stable ([11]; capsules in HDPE bottle, 25° C.±2° C., 60% RH±5% RH and 40° C. 2° C., 45% RH±5% RH): at least 6 months | time the API was stable ([11]; capsules, 25° C.±2° C., 60% RH±5% RH and 40° C.±2° C., 75% RH±5% RH, open HDPE bottles): at least 6 months | time the API remained stable ([11]; capsules, −20° C. 5° C., 5° C. 3° C., induction-sealed HDPE bottles): at least 6 month | Cmax ([12]; single oral dose 1, 2, 5, 10, 20, 30 mg): 10 to 1500 ng/mL | half-life ([12]; single oral dose 1 to 30 mg): 3 to 10 h | AUC(0-t) ([12]; single oral dose 1 to 30 mg, read-out: AUC0-24): 100 to 4000 ng·h/mL | changes in Form [8]: no changes in Form
Structure (SMILES): C[C@H](Nc1ncnc2[nH]cnc12)c1cc2cccc(Cl)c2c(=O)n1-c1ccccc1 [Form C, (S)-3-(1-(9H-purin-6-ylamino)ethyl)-8-chloro-2-phenylisoquinolin-1(2H)-one]
instability of the polymorphic Form ([4]; LDPE bags, foil or Mylar bag, HDPE drum, 5° C./60% RH, 25° C./60% RH, 40° C./75% RH, up to 9 months): no indication of instability of the polymorphic Form

Solubility in water [2]: 50 µg/mL | Moisture Sorption (wt % water) ([7]; 60% RH): 60% RH: 0.3 wt % water | Moisture Sorption (wt % water) ([7]; 90% RH): 90% RH: 0.7 wt % water
Structure (SMILES): C[C@H](Nc1ncnc2[nH]cnc12)c1cc2cccc(Cl)c2c(=O)n1-c1ccccc1 [NSA]

Solubility in water [2]: 9400 µg/mL | Moisture Sorption (wt % water) ([7]; 60% RH): 60% RH: 7.5 wt % water | Moisture Sorption (wt % water) ([7]; 90% RH): 90% RH: 28.1 wt % water
Structure (SMILES): C[C@H](Nc1ncnc2[nH]cnc12)c1cc2cccc(Cl)c2c(=O)n1-c1ccccc1 [EDSA]

Solubility in water [2]: 11800 µg/mL | Moisture Sorption (wt % water) ([7]; 60% RH): 60% RH: 9.9 wt % water | Moisture Sorption (wt % water) ([7]; 90% RH): 90% RH: 12.3 wt % water
Structure (SMILES): C[C@H](Nc1ncnc2[nH]cnc12)c1cc2cccc(Cl)c2c(=O)n1-c1ccccc1 [Bis HCL]

Structure (SMILES): O=C(O)CCCc1ccc(N(CCCl)CCCl)cc1 [chlorambucil]
chemical stability [13]: largely hydrolyzed

Structure (SMILES): CC(C)[N+](C)(CCOC(=O)C1c2ccccc2Oc2ccccc21)C(C)C [propantheline]
plasma stability [9]: intermediate plasma stability
